Test results reported in patent US20240417439A1, “RECOMBINANT POLYPEPTIDE FOR DISRUPTING INTERACTION OF EAG2 AND KVß2 AND THERAPEUTIC APPLICATIONS THEREOF IN CANCER TREATMENT” (The Hospital for Sick Children, priority 2021, published 2024).
Non-standard residues stand in square brackets, D forms with d. No end group written: not given here.

B1: Kvß2, endogenous, mouse whole brain (other, UniProt P62482 1-367, looked up)
chain: MYPESTTGSPARLSLRQTGSPGMIYSTRYGSPKRQLQFYRNLGKSGLRVSCLGLGTWVTFGGQITDEMAEHLMTLAYDNGINLFDTAEVYAAGKAEVVLGNIIKKKGWRRSSLVITTKIFWGGKAETERGLSRKHIIEGLKASLERLQLEYVDVVFANRPDPNTPMEETVRAMTHVINQGMAMYWGTSRWSSMEIMEAYSVARQFNLIPPICEQAEYHMFQREKVEVQLPELFHKIGVGAMTWSPLACGIVSGKYDSGIPPYSRASLKGYQWLKDKILSEEGRRQQAKLKELQAIAERLGCTLPQLAIAWCLRNEGVSSVLLGASNAEQLMENIGAIQVLPKLSSSIVHEIDSILGNKPYSKKDYRS

Tests used:
[1] = tested on: GBM532 cells; experiment: cell viability of GBM532 cells following peptide treatment; format: cell-based, human; settings: increasing peptide concentrations
Description: GBM532 cells were exposed to increasing concentrations of various peptide treatments. […] The peptide K59-78^TATwas used as a negative control.

[2] = biological target: T1, EAG2, endogenous, mouse whole brain (mouse, UniProt Q920E3 1-988); experiment: co-IP from lysates of mouse whole brains
T1 sequence (looked up): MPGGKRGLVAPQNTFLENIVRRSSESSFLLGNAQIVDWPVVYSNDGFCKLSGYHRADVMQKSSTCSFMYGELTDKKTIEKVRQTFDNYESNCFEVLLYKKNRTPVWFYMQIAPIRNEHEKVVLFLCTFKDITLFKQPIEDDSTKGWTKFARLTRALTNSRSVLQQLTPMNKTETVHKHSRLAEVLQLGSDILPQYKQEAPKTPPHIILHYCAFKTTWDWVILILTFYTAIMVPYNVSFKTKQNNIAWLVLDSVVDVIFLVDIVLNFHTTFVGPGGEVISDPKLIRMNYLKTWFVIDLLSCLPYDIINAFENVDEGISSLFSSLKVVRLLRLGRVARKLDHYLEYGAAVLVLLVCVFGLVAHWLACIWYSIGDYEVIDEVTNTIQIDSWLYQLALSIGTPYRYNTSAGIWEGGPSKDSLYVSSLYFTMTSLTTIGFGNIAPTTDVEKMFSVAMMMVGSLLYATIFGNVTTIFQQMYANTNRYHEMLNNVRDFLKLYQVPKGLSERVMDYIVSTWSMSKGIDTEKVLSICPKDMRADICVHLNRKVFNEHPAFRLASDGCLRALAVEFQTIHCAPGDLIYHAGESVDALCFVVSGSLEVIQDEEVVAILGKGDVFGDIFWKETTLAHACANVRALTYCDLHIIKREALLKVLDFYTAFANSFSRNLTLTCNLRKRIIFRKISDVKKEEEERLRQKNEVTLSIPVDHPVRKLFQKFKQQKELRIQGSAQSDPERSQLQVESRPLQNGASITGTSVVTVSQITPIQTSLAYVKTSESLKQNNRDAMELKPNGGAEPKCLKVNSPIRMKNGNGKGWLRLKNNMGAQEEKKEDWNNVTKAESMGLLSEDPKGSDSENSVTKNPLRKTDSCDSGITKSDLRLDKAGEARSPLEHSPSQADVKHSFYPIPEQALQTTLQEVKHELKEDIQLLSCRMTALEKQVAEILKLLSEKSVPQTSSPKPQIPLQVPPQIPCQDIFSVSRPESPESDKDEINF

Molecule	cell-killing activity [1]	binding result [2]
Retro-inverso-DIP: D-amino acids in reverse order: VLSSRRWGKKKIINGLVVEAKGAAYSGSGSGQPRRRQRRKKRG ([dV][dL][dS][dS][dR][dR][dW]G[dK][dK][dK][dI][dI][dN]G[dL][dV][dV][dE][dA][dK]G[dA][dA][dY][dS]G[dS]G[dS]G[dQ][dP][dR][dR][dR][dQ][dR][dR][dK][dK][dR]G)	Good cell-killing activity	
B1		no binding
